Patent US12275706B2, “Malate salt of N-(4-{[6,7-bis(methyloxy) quinolin-4-yl]oxy}phenyl)-N′-(4-fluorophenyl)cyclopropane-1,1-dicarboxamide, and crystalline forms thereof for the treatment of cancer” (Exelixis, Inc., priority 2009, dated 2025)

How the values were obtained:
[1] = Salt screen: salt formation, crystallinity, hygroscopicity and other data; conditions: Table 1
[2] = Solid state stability on exposure to high humidity and temperature; type: physicochemical
Excerpt: Other solid state properties which may be used to characterize the crystalline N-1 forms of Compounds (I) and (II) are shown in the figures and discussed in the examples below.

[3] = Storage stability at controlled temperature/relative humidity; type: physicochemical
[4] = Karl Fischer water analysis; type: physicochemical; conditions: correlates with TGA and GVS
Procedure: (§1) The amount of water taken up was calculated at about 0.60 wt % at 90% RH. […] The amount of water associated with this salt was calculated at about 0.5 wt % by Karl Fischer analysis and correlates with TGA and GVS analysis.

[5] = Water solubility of free base and salts (salt screen); conditions: for Solubility: water, 10 mg solids per mL water
[6] = Moisture sorption (water uptake); type: physicochemical
Procedure: as §1
Moisture sorption isotherms were collected in a VTI SGA-100 Symmetric Vapor Analyzer using approximately 10 mg of sample. The sample was dried at 60° C. until the loss rate of 0.0005 wt %/min was obtained for 10 minutes. The sample was tested at 25° C. and 3 or 4, 5, 15, 25, 35, 45, 50, 65, 75, 85, and 95% RH. Equilibration at each RH was reached when the rate of 0.0003 wt %/min for 35 minutes was achieved or a maximum of 600 minutes.

[7] = DSC/TGA thermal stability; type: physicochemical
Procedure: as §1
The TGA measurements were performed in a TA Instruments™ model Q500 or 2950, employing an open pan setup. The sample (about 10-30 mg) was placed in a platinum pan previously tared. The weight of the sample was measured accurately and recorded to a thousand of a milligram by the instrument. The furnace was purged with nitrogen gas at 100mL/min. Data were collected between room temperature and 300° C. at 10° C./min heating rate.
DSC measurements were performed in a TA Instruments™ model Q2000, Q1000 or 2920, employing an open pan setup. The sample (about 2-6 mg) was weighed in an aluminum pan and recorded accurately recorded to a hundredth of a milligram, and transferred to the DSC. The instrument was purged with nitrogen gas at 50 mL/min. Data were collected between room temperature and 300° C. at 10° C./min heating rate. The plot was made with the endothermic peaks pointing down.

physchem = conditions: water, thermodynamic from solid

For `CC(=O)O` [Acetate], the “other data relating to the free base and each salt (salt formation, crystallinity, hygroscopicity, remarks)” value [1] was “no salt formation; mixture of free base and acid”.
In the case of `C1=Cc2cccc(OC[C@H]3CNCCO3)c2C1.O=S(=O)(O)c1ccccc1` [Benzenesulfonate], the “other data relating to the free base and each salt (salt formation, crystallinity, hygroscopicity, remarks)” value [1] is reported as “Crystalline Salt; possible sulfonic acid formation”.
In the case of `Cl` [Chloride], the “moisture sensitivity, phase” value ([2]; high humidity (75% humidity) and high temperature (40° C.)) is reported as “undesirable moisture sensitivity, changing phase” and the “other data relating to the free base and each salt (salt formation, crystallinity, hygroscopicity, remarks)” value [1] is reported as “Crystalline but Hygroscopic; possible hydrate”.
For `COc1cc2nccc(Oc3ccc(NC(=O)C4(C(=O)Nc5ccc(F)cc5)CC4)cc3)c2cc1OC.O=C(O)C[C@H](O)C(=O)O` [Compound (I), N-(4-{[6,7-bis(methyloxy)quinolin-4-yl]oxy}phenyl)-N′-(4-fluorophenyl)cyclopropane-1,1-dicarboxamide, (L) Malate Salt], the “solid state phase and degree of crystallinity” value ([2]; 75% RH at 40° C. for 1 week) was “remained unchanged”, the “change in assay, purity, moisture and dissolution” value ([3]; 25° C./60% relative humidity (RH)) was “no change in assay, purity, moisture and dissolution” and the “change in assay, purity, moisture and dissolution” value ([3]; 40° C./60% RH) was “no change in assay, purity, moisture and dissolution”. The “amount of water associated with the salt” value [4] was “about 0.5 wt %”, the “solubility (in words)” value [5] was “sufficient solubility for use in a pharmaceutical composition” and the Solubility [5] was 0.059 mg/mL. For the same molecule, the “uptake of water, reversibility” value [6] was “reversible with a slight hysteresis”, the “amount of water taken up” value ([6]; at 90% RH) was “about 0.60 wt %” and the “solvent losses (DSC/TGA)” value [7] was “No solvent losses were observed”. For the same molecule, the “stable up to (DSC/TGA)” value [7] was “up to 185 °C”.
In the case of `COc1cc2nccc(Oc3ccc(NC(=O)C4(C(=O)Nc5ccc(F)cc5)CC4)cc3)c2cc1OC` [Free base, N-(4-{[6,7-bis(methyloxy)quinolin-4-yl]oxy}phenyl)-N′-(4-fluorophenyl)cyclopropane-1,1-dicarboxamide], the Solubility (physchem) is reported as under 0.001 mg/mL and the “other data relating to the free base and each salt (salt formation, crystallinity, hygroscopicity, remarks)” value [1] is reported as “very low solubility”.
For `O=S(=O)(O)O` [Sulfate], the “other data relating to the free base and each salt (salt formation, crystallinity, hygroscopicity, remarks)” value [1] was “Crystalline salt, low solubility”.
In the case of Benzoate, the “other data relating to the free base and each salt (salt formation, crystallinity, hygroscopicity, remarks)” value [1] is reported as “no salt formation; mixture of free base and acid”.
In the case of Fumarate, the “other data relating to the free base and each salt (salt formation, crystallinity, hygroscopicity, remarks)” value [1] is reported as “Crystalline Salt, low solubility”.
For L-Lactate, the “other data relating to the free base and each salt (salt formation, crystallinity, hygroscopicity, remarks)” value [1] was “Amorphous, salt”.
In the case of Malonate, the “other data relating to the free base and each salt (salt formation, crystallinity, hygroscopicity, remarks)” value [1] is reported as “Crystalline salt, low solubility”.
In the case of Phosphate, the Solubility [5] is reported as 0.026 mg/mL, the “weight gain due to absorption of H2O” value ([6]; highest among the salts tested) is reported as 8% and the “other data relating to the free base and each salt (salt formation, crystallinity, hygroscopicity, remarks)” value [1] is reported as “Crystalline but Hygroscopic”.
With Tosylate the Solubility [5] was 0.007 mg/mL and the “other data relating to the free base and each salt (salt formation, crystallinity, hygroscopicity, remarks)” value [1] was “Crystalline salt, low solubility”.
